The values that follow come from ChEMBL document CHEMBL5380830, “Development and Therapeutic Implications of Tyrosine Kinase 2 Inhibitors” (J Med Chem, 2023).

A value given as a limit tells only on which side of the number the result lay.

A short description of series [1]: Oral bioavailability in C57BL/6 mouse at 10 mg/kg by LC/MS-MS analysis. It is filed as ADME, organism-based. Conditions: in vivo.
In series [2] the target is T1, Non-receptor tyrosine-protein kinase TYK2 (Homo sapiens, UniProt P29597). Description: Inhibition of TYK2 signal transduction pathway in human PBMC cells assessed as IFNalpha induced p-STAT5 level. In kind it is cell-based.
Series [3] addresses T2, Tyrosine-protein kinase JAK3 (Homo sapiens, UniProt P52333).
T2 sequence (P52333 whole entry): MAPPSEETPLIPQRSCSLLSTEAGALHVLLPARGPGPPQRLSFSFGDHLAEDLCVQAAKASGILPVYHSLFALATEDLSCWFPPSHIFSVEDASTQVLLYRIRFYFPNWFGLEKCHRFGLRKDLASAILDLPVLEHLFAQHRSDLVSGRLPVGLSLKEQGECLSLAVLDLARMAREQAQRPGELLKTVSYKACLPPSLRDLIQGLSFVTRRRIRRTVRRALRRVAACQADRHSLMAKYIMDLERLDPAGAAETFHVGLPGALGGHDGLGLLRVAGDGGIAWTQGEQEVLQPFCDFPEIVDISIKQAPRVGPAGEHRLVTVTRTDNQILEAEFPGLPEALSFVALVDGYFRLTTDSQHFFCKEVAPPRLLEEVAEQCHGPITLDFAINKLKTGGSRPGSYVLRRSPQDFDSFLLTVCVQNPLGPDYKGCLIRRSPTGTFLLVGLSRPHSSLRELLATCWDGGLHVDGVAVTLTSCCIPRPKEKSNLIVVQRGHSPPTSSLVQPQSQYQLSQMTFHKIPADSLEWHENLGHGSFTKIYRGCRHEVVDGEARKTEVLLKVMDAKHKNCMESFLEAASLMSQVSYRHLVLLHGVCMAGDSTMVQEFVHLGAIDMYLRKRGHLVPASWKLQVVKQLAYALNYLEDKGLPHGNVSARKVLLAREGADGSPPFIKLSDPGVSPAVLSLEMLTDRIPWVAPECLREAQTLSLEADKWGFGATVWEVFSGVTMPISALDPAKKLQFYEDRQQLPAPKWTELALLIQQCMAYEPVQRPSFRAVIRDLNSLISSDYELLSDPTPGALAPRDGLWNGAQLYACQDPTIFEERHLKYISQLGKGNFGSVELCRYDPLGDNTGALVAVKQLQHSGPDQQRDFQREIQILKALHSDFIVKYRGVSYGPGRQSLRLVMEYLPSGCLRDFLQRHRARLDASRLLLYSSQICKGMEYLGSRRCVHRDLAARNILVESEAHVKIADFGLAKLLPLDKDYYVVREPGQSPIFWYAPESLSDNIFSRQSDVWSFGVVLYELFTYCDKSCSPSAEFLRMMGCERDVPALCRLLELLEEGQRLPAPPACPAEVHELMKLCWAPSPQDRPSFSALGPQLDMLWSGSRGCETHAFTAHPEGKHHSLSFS
Briefly: Inhibition of JAK3 (unknown origin).

A short description of series [4]: Half life in C57BL/6 mouse at 10 mg/kg, po by LC/MS-MS analysis. Conditions: in vivo. It is filed as ADME, organism-based.
In series [5] the target is T3, Tyrosine-protein kinase JAK1 (Homo sapiens, UniProt P23458). Description: Inhibition of JAK1 (unknown origin).
In series [6] the target is T1, Non-receptor tyrosine-protein kinase TYK2. Briefly: Binding affinity to TYK2 JH2 (unknown origin).
For series [7], the target named is T4, Tyrosine-protein kinase JAK2 (Homo sapiens, UniProt O60674). Briefly: Inhibition of JAK2 (unknown origin).
The target in series [8] is T1, Non-receptor tyrosine-protein kinase TYK2. Briefly: Inhibition of TYK2 JH1 (unknown origin).
The nature of series [9]: Half life in ICR mouse at 30 mg/kg, IG by LC/MS/MS analysis. In kind it is ADME, organism-based. Particulars: in vivo, po.
Series [10] is described as follows: Metabolic stability in human liver microsomes assessed as compound remaining after 60 mins. In kind it is ADME, Microsome. Conditions: read-out: Stability.
Series [11] in a line: Cmax in ICR mouse at 30 mg/kg, IG by LC/MS/MS analysis. More on the design: dose 30 mg/kg, route ig. It is filed as ADME, organism-based. Conditions: in vivo, po.
Series [12] concerns the target T1, Non-receptor tyrosine-protein kinase TYK2. Briefly: Inhibition of TYK2 in HEK-Blue IL-23 cells assessed as reduction in SEAP reporter gene expression by Quanti-blue assay. In kind it is cell-based. For orientation: Reporter assays use an easily measured gene product as a stand-in for the process of interest.
Series [13] has the same target. Description: Inhibition of TYK2 JH2 in human KIT225 cells assessed as reduction of IFNalpha induced STAT1 phosphorylation by AlphaLISA assay. It is filed as cell-based.
Series [14] shares this target. Briefly: Binding affinity to human wild-type partial length TYK2 JH2 (G556 to D888 residues) expressed in mammalian expression system by KINOMEscan assay.
For series [15] the target is unchanged. Briefly: Binding affinity to His-tagged human recombinant TYK2 JH2 (556 to 871 residues) incubated for 10 hrs by microplate reader based analysis.
Series [16] addresses T5, JAK2/TYK2 (Homo sapiens, UniProt O60674+P29597). Description: Inhibition of JAK2/TYK2 signal transduction pathway in human PBMC cells assessed as IL-23 induced p-STAT4 level by AlphaLISA assay. It is filed as cell-based. A general note: Bead proximity is the source of the signal in Alpha formats.
The target in series [17] is T5, JAK2/TYK2. Briefly: Inhibition of JAK2/TYK2 signal transduction pathway in human PBMC cells assessed as IL-12 induced p-STAT4 level by AlphaLISA assay. It is filed as cell-based.
Series [18] concerns the target T5, JAK2/TYK2. Briefly: Inhibition of JAK2/TYK2 signal transduction pathway in human PBMC cells assessed as reduction in GM-CSF induced p-STAT5 level incubated for 20 mins. It is filed as cell-based.
In series [19] the target is T1, Non-receptor tyrosine-protein kinase TYK2. Description: Inhibition of TYK2 JH1 (unknown origin) at 10 uM relative to control.
For series [20], the target named is T3, Tyrosine-protein kinase JAK1. Briefly: Binding affinity to JAK1 JH2 (unknown origin).
Series [21] addresses T4, Tyrosine-protein kinase JAK2. Briefly: Inhibition of JAK2 JH1 (unknown origin) at 10 uM relative to control.
For series [22], the target named is T5, JAK2/TYK2. Description: Inhibition of JAK2/TYK2 signal transduction pathway in human PBMC cells assessed as IL-12 induced p-STAT4 level incubated for 30 mins. In kind it is cell-based.
Series [23] addresses T1, Non-receptor tyrosine-protein kinase TYK2. Description: Inhibition of TYK2 JH2 (unknown origin).
Series [24] is described as follows: AUC in C57BL/6 mouse at 10 mg/kg, po by LC/MS-MS analysis. It is filed as ADME, organism-based. More on the design: dose 10 mg/kg, route po. Particulars: in vivo.
Series [25] is described as follows: Cmax in C57BL/6 mouse at 10 mg/kg, po by LC/MS-MS analysis. It is filed as ADME, organism-based. More on the design: dose 10 mg/kg, route po. Particulars: in vivo.

T5 sequence (O60674 whole entry): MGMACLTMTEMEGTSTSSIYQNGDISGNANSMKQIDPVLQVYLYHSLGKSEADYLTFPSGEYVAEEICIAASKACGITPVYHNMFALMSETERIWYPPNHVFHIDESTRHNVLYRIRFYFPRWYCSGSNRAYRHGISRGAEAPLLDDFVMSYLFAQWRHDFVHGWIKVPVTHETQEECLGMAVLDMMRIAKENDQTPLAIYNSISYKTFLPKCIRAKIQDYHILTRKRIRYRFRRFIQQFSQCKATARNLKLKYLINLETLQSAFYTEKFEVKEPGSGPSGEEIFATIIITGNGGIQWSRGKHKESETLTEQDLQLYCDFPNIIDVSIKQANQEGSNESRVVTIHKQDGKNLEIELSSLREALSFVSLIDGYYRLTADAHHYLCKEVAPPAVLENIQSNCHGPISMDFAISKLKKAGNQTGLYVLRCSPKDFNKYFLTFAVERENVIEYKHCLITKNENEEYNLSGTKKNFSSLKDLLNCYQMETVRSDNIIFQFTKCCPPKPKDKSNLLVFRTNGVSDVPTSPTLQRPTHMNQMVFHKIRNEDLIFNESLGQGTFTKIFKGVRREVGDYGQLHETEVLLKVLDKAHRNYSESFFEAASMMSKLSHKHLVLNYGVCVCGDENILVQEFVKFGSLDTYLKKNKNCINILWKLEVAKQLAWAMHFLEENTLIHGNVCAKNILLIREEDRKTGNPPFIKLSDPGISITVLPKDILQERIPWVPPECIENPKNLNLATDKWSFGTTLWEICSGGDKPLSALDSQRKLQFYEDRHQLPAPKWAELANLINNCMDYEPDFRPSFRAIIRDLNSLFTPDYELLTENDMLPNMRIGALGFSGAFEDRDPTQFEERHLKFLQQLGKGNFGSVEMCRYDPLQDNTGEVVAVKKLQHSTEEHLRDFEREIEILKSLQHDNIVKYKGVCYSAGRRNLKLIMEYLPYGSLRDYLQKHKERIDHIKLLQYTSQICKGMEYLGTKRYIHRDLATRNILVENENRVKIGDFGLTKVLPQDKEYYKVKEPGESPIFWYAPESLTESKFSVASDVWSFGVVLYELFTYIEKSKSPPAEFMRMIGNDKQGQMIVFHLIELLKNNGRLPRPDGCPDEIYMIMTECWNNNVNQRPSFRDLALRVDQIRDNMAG
T5 sequence (P29597 whole entry): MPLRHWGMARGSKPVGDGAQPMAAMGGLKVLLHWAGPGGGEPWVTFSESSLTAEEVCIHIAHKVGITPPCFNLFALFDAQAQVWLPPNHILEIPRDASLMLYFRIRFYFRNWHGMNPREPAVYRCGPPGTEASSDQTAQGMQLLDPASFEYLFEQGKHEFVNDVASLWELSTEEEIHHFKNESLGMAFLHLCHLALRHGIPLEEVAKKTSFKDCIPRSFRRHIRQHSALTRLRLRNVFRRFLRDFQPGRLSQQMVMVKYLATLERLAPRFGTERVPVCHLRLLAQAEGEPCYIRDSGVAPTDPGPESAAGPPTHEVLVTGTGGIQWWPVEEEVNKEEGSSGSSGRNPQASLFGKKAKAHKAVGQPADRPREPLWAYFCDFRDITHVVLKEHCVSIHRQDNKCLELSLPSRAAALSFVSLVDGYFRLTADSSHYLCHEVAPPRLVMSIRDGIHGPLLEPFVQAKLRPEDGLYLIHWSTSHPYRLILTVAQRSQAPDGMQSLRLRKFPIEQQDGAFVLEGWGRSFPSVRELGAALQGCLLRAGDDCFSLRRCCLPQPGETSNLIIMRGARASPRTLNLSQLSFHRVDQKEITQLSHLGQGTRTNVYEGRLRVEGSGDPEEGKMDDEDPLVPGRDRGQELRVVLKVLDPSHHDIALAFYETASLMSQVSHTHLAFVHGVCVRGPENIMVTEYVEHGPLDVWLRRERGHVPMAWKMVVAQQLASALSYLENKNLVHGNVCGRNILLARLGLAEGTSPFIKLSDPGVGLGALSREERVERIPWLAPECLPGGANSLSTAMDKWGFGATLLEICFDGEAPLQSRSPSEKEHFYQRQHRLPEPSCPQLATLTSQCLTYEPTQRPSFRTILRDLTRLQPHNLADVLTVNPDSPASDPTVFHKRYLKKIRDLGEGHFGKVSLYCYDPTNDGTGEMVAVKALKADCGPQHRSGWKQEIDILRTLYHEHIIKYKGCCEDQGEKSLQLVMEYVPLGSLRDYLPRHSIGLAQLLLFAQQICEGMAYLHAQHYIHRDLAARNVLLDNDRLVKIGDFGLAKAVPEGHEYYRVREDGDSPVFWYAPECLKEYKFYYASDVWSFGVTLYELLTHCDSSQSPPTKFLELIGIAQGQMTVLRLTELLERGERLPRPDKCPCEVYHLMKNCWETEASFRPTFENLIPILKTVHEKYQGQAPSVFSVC
T4 sequence (O60674 whole entry): as the sequence (O60674 whole entry) above
T1 sequence (P29597 whole entry): as the sequence (P29597 whole entry) above
T3 sequence (P23458 whole entry): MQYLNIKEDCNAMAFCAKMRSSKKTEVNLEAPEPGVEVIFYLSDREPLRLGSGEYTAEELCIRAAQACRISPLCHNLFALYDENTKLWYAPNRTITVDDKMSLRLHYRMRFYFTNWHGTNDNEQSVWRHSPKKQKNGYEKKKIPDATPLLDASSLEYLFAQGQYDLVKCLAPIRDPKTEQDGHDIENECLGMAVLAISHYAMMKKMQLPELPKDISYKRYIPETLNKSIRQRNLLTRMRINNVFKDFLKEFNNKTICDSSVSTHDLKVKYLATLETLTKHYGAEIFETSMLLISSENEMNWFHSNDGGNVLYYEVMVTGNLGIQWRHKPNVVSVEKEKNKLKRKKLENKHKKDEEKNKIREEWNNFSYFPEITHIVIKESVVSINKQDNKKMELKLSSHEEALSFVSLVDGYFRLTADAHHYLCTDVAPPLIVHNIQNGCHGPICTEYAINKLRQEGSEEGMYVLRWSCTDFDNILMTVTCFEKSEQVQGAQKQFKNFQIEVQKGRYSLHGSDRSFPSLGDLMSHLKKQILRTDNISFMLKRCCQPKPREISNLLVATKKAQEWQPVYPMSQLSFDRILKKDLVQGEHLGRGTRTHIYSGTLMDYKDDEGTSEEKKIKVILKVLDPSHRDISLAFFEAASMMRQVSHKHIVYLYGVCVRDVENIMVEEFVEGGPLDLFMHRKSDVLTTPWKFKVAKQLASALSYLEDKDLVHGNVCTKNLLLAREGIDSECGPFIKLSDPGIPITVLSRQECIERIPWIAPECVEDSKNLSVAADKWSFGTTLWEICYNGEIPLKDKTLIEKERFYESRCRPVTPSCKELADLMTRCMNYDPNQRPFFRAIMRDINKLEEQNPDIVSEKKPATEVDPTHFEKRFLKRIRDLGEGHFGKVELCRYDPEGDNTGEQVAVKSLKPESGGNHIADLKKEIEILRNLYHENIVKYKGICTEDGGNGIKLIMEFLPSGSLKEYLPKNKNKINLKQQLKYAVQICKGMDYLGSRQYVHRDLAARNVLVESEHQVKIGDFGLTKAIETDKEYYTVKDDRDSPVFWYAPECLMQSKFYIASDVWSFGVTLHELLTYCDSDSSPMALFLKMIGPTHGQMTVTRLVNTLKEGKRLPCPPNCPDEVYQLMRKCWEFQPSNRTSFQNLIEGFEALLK

As a reminder, the IC50 is the concentration that inhibits the measured activity by half. One may read the half-life as the time in which the quantity being followed falls by half. Low readings indicate fast loss, high ones slow loss. As usually defined, the Kd is a measure of binding affinity in units of concentration. High values mean lower affinity, low ones higher affinity. Turning to `[2H]C([2H])([2H])NC(=O)c1nnc2cc1Nc1cc(cc(-c3ccn(C)n3)c1OC)CCOCc1cccc(n1)N2`, the bioavailability in series [1] was found to be 147%. For the same molecule, the IC50 is no more than 50 nM in [2]; greater than 10000 nM in [3]; greater than 10000 nM in series [5]; greater than 10000 nM in series [7]; greater than 10000 nM in [8]. The same molecule gave a half-life in series [4] of 3.01 h. Also, the dissociation constant (Kd) in [6] is less than 1 nM.

As a reminder, the Cmax is the peak of the concentration-time curve. With `[2H]C([2H])([2H])NC(=O)c1nnc(NC(=O)C2CC2)cc1Nc1cccc(-c2ncc(-c3cccnc3C(F)(F)F)cn2)c1OC`, the half-life in series [9] is 6.26 h. Also, the remaining at 1 h in [10] was found to be 100%. The same molecule came in with a Cmax in series [11] of 12500 ng/mL.

On to `[2H]C([2H])([2H])NC(=O)c1nnc(NC(=O)[C@H]2CC23CC3)cc1Nc1ncc(OCCOC)cc1S(C)(=O)=O`, for which the concentration for half-maximal inhibition (IC50) in series [12] was less than 1 nM.

Consider `[2H]C([2H])([2H])NC(=O)c1nnc(Nc2ccc(N3CC(O)C3)cn2)cc1Nc1cccc(-c2ncn(C)n2)c1OC`, for which the IC50 in series [13] came to 83 nM. The molecule further came in with a Kd in series [14] of 0.005 nM.

With `[2H]C([2H])([2H])NC(=O)c1nnc(NC(=O)C2CC2)cc1Nc1ncc(C2CC2)cc1S(C)(=O)=O`, the concentration for half-maximal inhibition (IC50) in [12] was less than 1 nM.

For `CNC(=O)c1nnc(NC(=O)N2CCC2)cc1Nc1cccc(-c2ncn(C)n2)c1OC`, the IC50 in [13] came out at 54 nM. In series [14], this molecule returned a dissociation constant Kd of 0.028 nM.

Usually Ki stands for the dissociation constant of the complex between target and ligand, obtained from inhibition or displacement. With `CO[C@@]1(c2cc(C)cc(-n3nc(-c4cnn(C)c4)c4cnc(NC(N)=O)cc43)n2)CCOC1`, the inhibition constant (Ki) in [15] was 2 nM. In addition, the IC50 on JAK2/TYK2 [16] came to 3 nM; at JAK2/TYK2 [17], 9 nM.

Usually inhibition stands for the change of the read-out against control, counted positive when it falls. A high value points to a strong effect. Turning to `CNc1cc(Nc2cccn(-c3cnc(C(C)(C)O)cn3)c2=O)nc2c(C(=O)NC3CCC3)cnn12`, the half-maximal inhibitory concentration (IC50) on JAK2/TYK2 [18] and at JAK2/TYK2 [22] was less than 500 nM in each case. Besides, the inhibition in series [19] and in series [21] was less than 50% in each case. The Kd in series [20] is 5000 nM; in series [14], less than 0.2 nM.

One may read the AUC as the area under the concentration-time curve, a measure of exposure. `CO[C@@]1(c2cc(C)cc(-n3cc(C4CC4)c4cnc(NC(C)=O)cc43)n2)CCOC1`: the IC50 in series [7] was greater than 10000 nM; in [23], 0.6 nM; in series [8], greater than 10000 nM. Moreover, the AUC in series [24] was 10900 ng·h/mL. This molecule registered a Cmax in series [25] of 2060 ng/mL.
